Experiment [1] has as its target T1, human recombinant histamine H2 receptor (Homo sapiens, UniProt P25021).
T1 construct: expressed in transfected cells; host or cells: Chinese hamster ovary (CHO) K1 cells
The experiment is described as follows: Histamine H2 radioligand binding ([125I]Aminopotentidine). The settings on record: read-out: Histamine Binding (1 μM) H2, percent inhibition of specific binding, 1 μM. The method, boiled down:
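Receptor source: human recombinant H2 in CHO-K1 cells, assayed in 50 mM phosphate pH 7.4. Competition against 0.1 nM [125I]aminopotentidine, 120 min, 25 °C; 3 μM tiotidine sets nonspecific binding, filter-bound counts give specific binding.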

Experiment [2] has as its target T2, human recombinant adrenergic α1D receptor (Homo sapiens, UniProt P25100).
T2 construct: expressed in transfected cells; host or cells: human embryonic kidney (HEK-293) cells
T2 sequence (P25100 1-572): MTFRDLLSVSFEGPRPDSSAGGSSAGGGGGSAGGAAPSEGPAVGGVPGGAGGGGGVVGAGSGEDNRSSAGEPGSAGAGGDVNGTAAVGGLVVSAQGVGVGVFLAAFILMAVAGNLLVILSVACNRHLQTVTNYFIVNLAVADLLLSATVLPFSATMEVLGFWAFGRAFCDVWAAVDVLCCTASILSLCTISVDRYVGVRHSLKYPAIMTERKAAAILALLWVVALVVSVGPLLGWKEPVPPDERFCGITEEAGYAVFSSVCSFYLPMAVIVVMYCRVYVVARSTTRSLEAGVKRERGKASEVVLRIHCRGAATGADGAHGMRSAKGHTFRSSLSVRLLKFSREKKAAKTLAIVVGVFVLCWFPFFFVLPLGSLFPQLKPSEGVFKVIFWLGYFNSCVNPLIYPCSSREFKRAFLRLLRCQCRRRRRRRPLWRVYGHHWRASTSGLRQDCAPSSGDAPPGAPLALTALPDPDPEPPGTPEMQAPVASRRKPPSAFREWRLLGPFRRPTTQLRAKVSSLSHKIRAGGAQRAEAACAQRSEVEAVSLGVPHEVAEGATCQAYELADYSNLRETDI
Briefly: Adrenergic α1D radioligand binding ([3H]Prozosin). The following applies: compound at 1 μM. On the procedure:
Compounds of invention were incubated with 0.6 nM [^3H]Prozosin for 60 min. at 25° C. Non-specific binding was estimated in the presence of 10 μM phentolamine. Receptor proteins were filtered and washed, the filters were then counted to determine [^3H]Prozosin specifically bound. Compounds were screened at 1 μM or lower, using 1% DMSO as vehicle. Biochemical assay results are presented as the percent inhibition of specific binding in Table 9.

In experiment [3] the target is T3, human recombinant serotonin (5-Hydroxytryptamine) 5-HT2A receptor (Homo sapiens, UniProt P28223).
T3 construct: expressed in transfected cells; host or cells: Chinese hamster ovary (CHO-K1) cells
Briefly: Serotonin 5-HT2A radioligand binding ([3H]Ketanserin). The settings on record: for inhibition at 1 µM: read-out: Inhibition of ligand binding, Serotonin 5-HT2A (percent inhibition of specific binding), compound at 1 μM. The procedure:
Compounds of the invention were incubated with 0.5 nM [^3H]Ketanserin for 60 min. at 25° C. Non-specific binding was estimated in the presence of 1 μM Mianserin. Receptor proteins were filtered and washed, the filters were then counted to determine [^3H]Ketanserin specifically bound.

Experiment [4] deals with T4, human recombinant serotonin (5-Hydroxytryptamine) 5-HT2C receptor (Homo sapiens, UniProt P28335).
T4 construct: expressed in transfected cells; host or cells: Chinese hamster ovary (CHO-K1) cells
T4 sequence (P28335 33-458): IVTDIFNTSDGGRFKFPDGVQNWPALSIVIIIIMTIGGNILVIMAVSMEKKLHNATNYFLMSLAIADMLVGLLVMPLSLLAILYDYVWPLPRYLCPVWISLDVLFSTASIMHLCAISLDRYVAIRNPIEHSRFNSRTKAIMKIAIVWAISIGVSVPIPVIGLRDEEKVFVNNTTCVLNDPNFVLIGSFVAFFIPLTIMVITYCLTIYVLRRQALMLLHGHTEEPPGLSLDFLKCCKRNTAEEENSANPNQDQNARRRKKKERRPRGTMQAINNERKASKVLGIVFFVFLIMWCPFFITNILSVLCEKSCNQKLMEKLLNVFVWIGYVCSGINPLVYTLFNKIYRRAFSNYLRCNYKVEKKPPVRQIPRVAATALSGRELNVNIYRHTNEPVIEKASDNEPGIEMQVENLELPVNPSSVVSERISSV
The experiment is described as follows: Serotonin 5-HT2C radioligand binding ([3H]Mesulergine). The settings on record: read-out: Inhibition of ligand binding, Serotonin 5-HT2C (percent inhibition of specific binding); for inhibition at 1 µM: compound at 1 μM. The method, boiled down: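 Compounds tested at 1 μM or lower (1% DMSO vehicle) for displacement of 1 nM [3H]Mesulergine over 60 min at 25° C. Specific binding determined by filtration counting, with 1 μM Mianserin defining non-specific binding; values are percent inhibition.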

For experiment [5], the target named is human recombinant serotonin (5-Hydroxytryptamine) 5-HT7 receptor (Homo sapiens, UniProt P34969). Briefly: Serotonin 5-HT7 radioligand binding ([3H]LSD). The following applies: for inhibition at 1 µM: compound at 1 μM. The source says:
Receptor proteins were filtered and washed, the filters were then counted to determine [^3H]LSD specifically bound.

Setting [6] is: read-out: Inhibition of ligand binding, Serotonin 5-HT7 (percent inhibition of specific binding).

Like-named read-outs stand apart in the source and are kept apart here.

Sequence of human recombinant serotonin (5-Hydroxytryptamine) 5-HT7 receptor (P34969 whole entry): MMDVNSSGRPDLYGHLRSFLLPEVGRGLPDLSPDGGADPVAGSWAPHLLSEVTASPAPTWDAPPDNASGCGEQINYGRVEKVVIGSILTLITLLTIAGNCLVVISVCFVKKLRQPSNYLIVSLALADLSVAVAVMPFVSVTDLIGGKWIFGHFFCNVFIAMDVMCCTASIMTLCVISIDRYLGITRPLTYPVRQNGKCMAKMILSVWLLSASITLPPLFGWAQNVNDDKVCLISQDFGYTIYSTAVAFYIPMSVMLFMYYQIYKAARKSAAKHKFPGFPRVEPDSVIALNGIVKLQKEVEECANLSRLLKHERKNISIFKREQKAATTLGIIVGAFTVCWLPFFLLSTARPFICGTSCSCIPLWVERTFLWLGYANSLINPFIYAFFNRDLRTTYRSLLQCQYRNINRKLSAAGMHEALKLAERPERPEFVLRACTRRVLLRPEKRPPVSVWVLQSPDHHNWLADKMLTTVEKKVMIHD
T3 sequence (P28223 whole entry): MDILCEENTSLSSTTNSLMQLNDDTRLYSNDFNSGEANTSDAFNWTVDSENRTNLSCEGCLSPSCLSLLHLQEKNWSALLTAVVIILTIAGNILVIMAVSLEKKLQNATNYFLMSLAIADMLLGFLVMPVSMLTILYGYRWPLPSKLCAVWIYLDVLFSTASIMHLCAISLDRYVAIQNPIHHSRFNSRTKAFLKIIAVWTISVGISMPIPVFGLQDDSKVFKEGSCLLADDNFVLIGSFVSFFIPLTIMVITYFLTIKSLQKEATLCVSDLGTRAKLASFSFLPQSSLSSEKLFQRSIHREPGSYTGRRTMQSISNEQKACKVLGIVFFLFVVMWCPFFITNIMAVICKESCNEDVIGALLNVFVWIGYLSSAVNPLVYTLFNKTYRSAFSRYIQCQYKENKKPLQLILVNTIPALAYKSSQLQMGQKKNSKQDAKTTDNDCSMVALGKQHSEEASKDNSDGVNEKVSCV
T1 sequence (P25021 whole entry): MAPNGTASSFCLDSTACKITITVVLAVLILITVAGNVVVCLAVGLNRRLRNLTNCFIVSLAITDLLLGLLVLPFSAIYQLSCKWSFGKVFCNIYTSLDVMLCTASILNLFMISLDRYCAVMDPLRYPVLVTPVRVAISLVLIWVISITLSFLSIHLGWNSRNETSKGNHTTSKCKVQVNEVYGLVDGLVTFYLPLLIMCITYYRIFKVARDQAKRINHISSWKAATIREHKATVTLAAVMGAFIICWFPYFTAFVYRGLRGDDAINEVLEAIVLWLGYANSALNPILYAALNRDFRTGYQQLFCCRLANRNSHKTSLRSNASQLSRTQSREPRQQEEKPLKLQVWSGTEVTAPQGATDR

As to `CN1CCc2c(c3cc(Cl)ccc3n2CC(O)(c2ccc(F)cc2)C2CC2)C1` (centres unmarked) [Compound 82, 2-(8-chloro-1,2,3,4-tetrahydro-2-methylpyrido[4,3-b]indol-5-yl)-1-cyclopropyl-1-(4-fluorophenyl)ethanol], the inhibition (usually the drop in the measured response relative to a control, in per cent) at 1 µM in experiment [1] worked out at 99%; in experiment [2] (percent inhibition of specific binding, read-out: Inhibition of ligand binding, Adrenergic α1D), 62%; in experiment [3], 100%; in experiment [4], 105%; in experiment [5] (setting [6]) it was 93%. Moreover, the inhibition at 0.1 µM came out at 92% in experiment [3] (read-out: Inhibition of ligand binding, Serotonin 5-HT2A (percent inhibition of specific binding), compound at 0.1 μM); 94% in experiment [4] (compound at 0.1 μM); 86% in experiment [5] (compound at 0.1 μM, read-out: Inhibition of ligand binding, Serotonin 5-HT7 (percent inhibition of specific binding)). The “Inhibition of ligand binding, Serotonin 5-HT7 (percent inhibition of specific binding)” value in experiment [5] (compound at 0.1 μM, 0.1 µM) is listed as 95%.

Turning to `CN1CCc2c(c3cc(Cl)ccc3n2C#Cc2ccc(Cl)cc2)C1` [Compound No. 480, 8-chloro-5-((4-chlorophenyl)ethynyl)-2-methyl-2,3,4,5-tetrahydro-1H-pyrido[4,3-b]indole], the inhibition at 1 µM was found to be 93% in experiment [1]; 68% in experiment [2] (read-out: Inhibition of ligand binding, Adrenergic α1D (percent inhibition of specific binding)); 98% in experiment [3]; 102% in experiment [4]; 84% in experiment [5] (setting [6]).

These data come from patent US8906925B2, “Pyrido[4,3-B]indoles containing rigid moieties” (Medivation Technologies, Inc., priority 2008, dated 2014).
